Experimental data: PubChem BioAssay (NCI)
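1) Cells in 96-well plates. 2) Compound, 48 h, 5 concentrations. 3) Linear interpolation between surrounding doses. 4) Unreached endpoint = highest concentration. TGI: concentration producing complete growth inhibition.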

Experiments:
Assay in all cases: NCI tumour cell line growth inhibition, 48 h
SK-MEL-2 melanoma = system: SK-MEL-2 melanoma
BT-549 breast = system: BT-549 breast
SF-295 CNS = system: SF-295 CNS
OVCAR-5 ovarian = system: OVCAR-5 ovarian
A549 NSCLC = system: A549 NSCLC
NCI-H460 lung = system: NCI-H460 lung
SF-539 CNS = system: SF-539 CNS
HS 578T breast = system: HS 578T breast
K-562 leukemia = system: K-562 leukemia
LOX IMVI melanoma = system: LOX IMVI melanoma
T-47D breast = system: T-47D breast
NCI-H226 lung = system: NCI-H226 lung
HCT-116 colon = system: HCT-116 colon
IGROV1 ovarian = system: IGROV1 ovarian
A498 renal = system: A498 renal
SK-MEL-28 melanoma = system: SK-MEL-28 melanoma
OVCAR-8 ovarian = system: OVCAR-8 ovarian
NCI-H522 lung = system: NCI-H522 lung
SNB-75 CNS = system: SNB-75 CNS

Row | Compound | TGI (SK-MEL-2 melanoma) | TGI (BT-549 breast) | TGI (SF-295 CNS) | TGI (OVCAR-5 ovarian) | TGI (A549 NSCLC) | TGI (NCI-H460 lung) | TGI (SF-539 CNS) | TGI (HS 578T breast) | TGI (K-562 leukemia) | TGI (LOX IMVI melanoma) | TGI (T-47D breast) | TGI (NCI-H226 lung) | TGI (HCT-116 colon) | TGI (IGROV1 ovarian) | TGI (A498 renal) | TGI (SK-MEL-28 melanoma) | TGI (OVCAR-8 ovarian) | TGI (NCI-H522 lung) | TGI (SNB-75 CNS)
1 | Cc1ccc(S(=O)(=O)N/N=C2\CCC3(O)CC2(C)CCC2C3CC2(C)C)cc1 (stereo not given) | 87.1 µM | > 100 µM | > 100 µM | > 100 µM | > 100 µM | 46.7 µM | > 100 µM | 95.6 µM | > 100 µM | > 100 µM | > 100 µM | 89.5 µM | > 100 µM | > 100 µM | > 100 µM | > 100 µM | > 100 µM | 52.9 µM | –
2 | C=CCN1C[C@H](C)N([C@H](c2ccc(C(=O)N(CC)CC)cc2)c2cccc(OC)c2)C[C@H]1C | > 100 µM | > 100 µM | 58.3 µM | > 100 µM | > 100 µM | – | > 100 µM | > 100 µM | – | – | 65.5 µM | 95.6 µM | > 100 µM | > 100 µM | > 100 µM | > 100 µM | > 100 µM | > 100 µM | –
3 | OCCCCn1cc(Cn2ncc3c(NCc4ccccc4)ncnc32)nn1 | > 100 µM | > 100 µM | > 100 µM | > 100 µM | > 100 µM | > 100 µM | > 100 µM | > 100 µM | > 100 µM | > 100 µM | > 100 µM | > 100 µM | > 100 µM | > 100 µM | > 100 µM | > 100 µM | > 100 µM | > 100 µM | –
4 | CCC/C(Cl)=N/OC(NC(=O)OCC)(C(F)(F)F)C(F)(F)F | > 100 µM | – | > 100 µM | 33.2 µM | > 100 µM | > 100 µM | 30.3 µM | 77.3 µM | 62.6 µM | 35.4 µM | 66.9 µM | > 100 µM | 34.6 µM | 30.9 µM | > 100 µM | 59.2 µM | > 100 µM | > 100 µM | > 100 µM
5 | CCNC1=C(NC(=O)c2ccccc2)C(=O)c2ccccc2C1=O | – | > 100 µM | > 100 µM | > 100 µM | > 100 µM | > 100 µM | > 100 µM | > 100 µM | > 100 µM | – | > 100 µM | > 100 µM | > 100 µM | > 100 µM | – | > 100 µM | > 100 µM | 79.2 µM | –
6 | Cc1cc(S(=O)(=O)Nc2nnc3ccccn23)c(S)cc1Cl | > 100 µM | > 100 µM | 64.8 µM | > 100 µM | > 100 µM | > 100 µM | > 100 µM | > 100 µM | > 100 µM | > 100 µM | > 100 µM | – | > 100 µM | > 100 µM | > 100 µM | > 100 µM | > 100 µM | > 100 µM | –
7 | CO[C@@]12C[C@@H](C)[C@]34O[C@H]3C[C@]3(C)O[C@]43CC1=C(C)C(=O)O2 | > 100 µM | > 100 µM | > 100 µM | > 100 µM | > 100 µM | > 100 µM | > 100 µM | > 100 µM | > 100 µM | > 100 µM | > 100 µM | > 100 µM | > 100 µM | > 100 µM | > 100 µM | > 100 µM | > 100 µM | > 100 µM | –
8 | O=C1CCC2c3ccccc3NCN12 (stereo not given) | > 100 µM | – | > 100 µM | > 100 µM | > 100 µM | > 100 µM | > 100 µM | > 100 µM | > 100 µM | > 100 µM | > 100 µM | > 100 µM | > 100 µM | > 100 µM | > 100 µM | > 100 µM | > 100 µM | > 100 µM | > 100 µM
9 | COc1ccc(N=Nc2ccc3oc(=O)c(C(=O)Nc4ccccc4C)cc3c2)cc1 | > 10 µM | – | > 10 µM | > 10 µM | – | > 10 µM | > 10 µM | > 10 µM | – | > 10 µM | > 10 µM | > 10 µM | – | > 10 µM | > 10 µM | > 10 µM | > 10 µM | > 10 µM | > 10 µM
10 | CS(=O)(=O)OCCCSCCSCCCOS(C)(=O)=O | – | > 100 µM | > 100 µM | > 100 µM | > 100 µM | > 100 µM | > 100 µM | – | > 100 µM | > 100 µM | > 100 µM | – | > 100 µM | > 100 µM | – | > 100 µM | > 100 µM | > 100 µM | > 100 µM
11 | Nc1ncc(C=O)c(NCC2(CO)CCC2)n1 | > 100 µM | – | > 100 µM | > 100 µM | > 100 µM | > 100 µM | > 100 µM | > 100 µM | > 100 µM | > 100 µM | 88.9 µM | > 100 µM | > 100 µM | > 100 µM | > 100 µM | – | > 100 µM | > 100 µM | > 100 µM
12 | CCOC(=O)/C(C(=S)NCc1ccccc1)=C(/N)N1CCCC1 | > 100 µM | – | > 100 µM | > 100 µM | > 100 µM | > 100 µM | > 100 µM | > 100 µM | > 100 µM | > 100 µM | > 100 µM | > 100 µM | > 100 µM | > 100 µM | > 100 µM | > 100 µM | > 100 µM | > 100 µM | –
13 | Cc1nc2cc3ccccc3cc2[nH]c1=O | > 100 µM | > 100 µM | > 100 µM | > 100 µM | > 100 µM | > 100 µM | > 100 µM | – | > 100 µM | > 100 µM | > 100 µM | > 100 µM | > 100 µM | > 100 µM | > 100 µM | > 100 µM | > 100 µM | > 100 µM | 87 µM
14 | COc1ccccc1/C=C1\S/C(=N/Nc2nc(C)c(C(C)=O)s2)NC1=O | > 100 µM | – | > 100 µM | > 100 µM | > 100 µM | > 100 µM | > 100 µM | 70.1 µM | > 100 µM | > 100 µM | 72.8 µM | 39.8 µM | > 100 µM | – | 45.5 µM | > 100 µM | > 100 µM | – | 61 µM
15 | COc1ccc(CCNC(=O)c2ccccc2C2c3ccc(OCc4ccccc4)cc3Oc3cc(OCc4ccccc4)ccc32)cc1OC | > 100 µM | > 100 µM | > 100 µM | > 100 µM | > 100 µM | – | – | – | > 100 µM | > 100 µM | > 100 µM | > 100 µM | > 100 µM | > 100 µM | > 100 µM | > 100 µM | > 100 µM | > 100 µM | –
16 | COC1=C2CC(C)CC(OC)C(OC(=O)CN)[C@H](C)/C=C(\C)C(OC(N)=O)C(OC)/C=C\C=C(/C)C(=O)NC(=CC1=O)C2=O (stereo not given in full) | 14.7 µM | 14.2 µM | 17.5 µM | 13.8 µM | 21.8 µM | 20.9 µM | 12.7 µM | 20.2 µM | > 100 µM | 0.828 µM | 1.32 µM | 24.7 µM | 3.45 µM | 1.62 µM | 24.7 µM | 1.75 µM | 4.24 µM | 1.15 µM | –
17 | O=C(CC(C(=O)c1ccsc1)c1ccsc1)c1ccsc1 (stereo not given) | > 100 µM | – | > 100 µM | – | > 100 µM | > 100 µM | > 100 µM | > 100 µM | > 100 µM | > 100 µM | > 100 µM | > 100 µM | > 100 µM | > 100 µM | > 100 µM | > 100 µM | > 100 µM | – | > 100 µM
18 | O=C(CSCC(=O)N/N=C\c1ccc(O)c(O)c1O)N/N=C\c1ccc(O)c(O)c1O | 84.5 µM | – | 4.94 µM | – | 53.7 µM | 56.3 µM | 37.9 µM | 80.8 µM | – | 4.76 µM | 76.1 µM | 53.1 µM | 13.4 µM | 42.2 µM | > 100 µM | 44.2 µM | > 100 µM | 44.4 µM | 21.2 µM
19 | CCOC(=O)NN(C(=O)OCC)C(=C(C1=CCCCC1)N1CCOCC1)N(NC(=O)OCC)C(=O)OCC | – | > 100 µM | > 100 µM | > 100 µM | > 100 µM | > 100 µM | – | – | > 100 µM | > 100 µM | > 100 µM | > 100 µM | – | > 100 µM | > 100 µM | > 100 µM | > 100 µM | – | > 100 µM
20 | NC(CCP(=O)(O)O)C(=O)O (stereo not given) | > 100 µM | > 100 µM | > 100 µM | > 100 µM | > 100 µM | > 100 µM | – | > 100 µM | > 100 µM | > 100 µM | > 100 µM | > 100 µM | > 100 µM | > 100 µM | > 100 µM | > 100 µM | > 100 µM | > 100 µM | –
21 | COc1c(C(C)(C)C)cc(CC2C(=O)C=CC2=O)cc1C(C)(C)C | 36.7 µM | 41.1 µM | 44 µM | 35.8 µM | 55.4 µM | 41.2 µM | 48.3 µM | 70.4 µM | 14.1 µM | 40.2 µM | 12.7 µM | – | 13 µM | 29.2 µM | 32.9 µM | 43.4 µM | 66.9 µM | 5.03 µM | –
22 | O=C1c2ccccc2C(=O)c2c(NC(=O)C3CC3)ccc(NC(=O)C3CC3)c21 | > 100 µM | > 100 µM | > 100 µM | > 100 µM | > 100 µM | > 100 µM | > 100 µM | > 100 µM | > 100 µM | > 100 µM | > 100 µM | – | > 100 µM | > 100 µM | > 100 µM | > 100 µM | > 100 µM | > 100 µM | –
